# Results from patent US11083199B2, “Heterocycle derivatives as pesticides” (Bayer Aktiengesellschaft, priority 2017, dated 2021).
# Legend:
# Format in all cases: in vivo
# Myzus persicae [1] = assay: Myzus persicae oral test; details: 120 h, application rate 4 ppm, after 5 days, read-out: efficacy
# Protocol: [table] To produce a suitable active ingredient formulation, 1 part by weight of active ingredient is dissolved with the stated parts by weight of solvent and made up to the desired concentration with water. 50 μl of the active ingredient formulation are transferred into microtitre plates and made up to a final volume of 200 μl with 150 μl of IPL41 insect medium (33%+15% sugar). Subsequently, the plates are sealed with parafilm, which a mixed population of green peach aphids (Myzus persicae) within a second microtitre plate is able to puncture and imbibe the solution. After 5 days, the efficacy in % is determined. 100% means that all the aphids have been killed; 0% means that no aphids have been killed.
# Myzus persicae [2] = assay: Myzus persicae spray test; details: foliar, 120 h, application rate 100 g/ha, Chinese cabbage leaf discs, after 5 days, read-out: efficacy
# Protocol: (§1) [table] To produce a suitable active ingredient formulation, 1 part by weight of active ingredient is dissolved with the specified parts by weight of solvent and made up to the desired concentration with water containing an emulsifier concentration of 1000 ppm. To produce further test concentrations, the formulation is diluted with emulsifier-containing water. Discs of Chinese cabbage leaves (Brassica pekinensis) infested by all stages of the green peach aphid (Myzus persicae) are sprayed with an active ingredient formulation of the desired concentration. After 5 days, the efficacy in % is determined. 100% means that all the aphids have been killed; 0% means that no aphids have been killed.
# Phaedon cochleariae = Phaedon cochleariae spray test; details: 168 h, application rate 100 g/ha, larvae, after 7 days, read-out: efficacy
# Protocol: as §1, with “pekinensis)” for “pekinensis) infested by all stages of the green peach aphid (Myzus persicae)”, “concentration and, after drying, populated with larvae of the mustard beetle (Phaedon cochleariae).” for “concentration.”, “7” for “5”, “beetle larvae” for “aphids”
# Spodoptera frugiperda = Spodoptera frugiperda spray test; details: foliar, 168 h, application rate 100 g/ha, maize leaf discs, caterpillars, after 7 days, read-out: efficacy
# Protocol: [table] To produce a suitable active ingredient formulation, 1 part by weight of active ingredient is dissolved with the specified parts by weight of solvent and made up to the desired concentration with water containing an emulsifier concentration of 1000 ppm. To produce further test concentrations, the formulation is diluted with emulsifier-containing water. Leaf discs of maize (Zea mays) are sprayed with an active ingredient formulation of the desired concentration and, after drying, populated with caterpillars of the fall armyworm (Spodoptera frugiperda). After 7 days, the efficacy in % is determined. 100% means that all the caterpillars have been killed; 0% means that no caterpillar has been killed.
SMILES,pest or weed control at 4 ppm (Myzus persicae [1]) [%],pest or weed control at 100 g/ha (Myzus persicae [2]) [%],pest or weed control at 100 g/ha (Phaedon cochleariae) [%],pest or weed control at 100 g/ha (Spodoptera frugiperda) [%]
CCS(=O)(=O)c1c(-c2nc3cc(C(F)(F)F)ncc3n2C)nc(Br)n1C(C)C [Example I-002],100,–,–,–
"CCS(=O)(=O)c1c(-c2nc3cc(C(F)(F)F)ncc3n2C)nc(Br)n1C [Example I-004, 2-[2-Bromo-5-(ethylsulfonyl)-1-methyl-1H-imidazol-4-yl]-3-methyl-6-(trifluoromethyl)-3H-imidazo[4,5-c]pyridine]",100,–,–,–
CCS(=O)(=O)c1c(-c2nc3cc(C(F)(F)F)ncc3n2C)nc(-c2cnccc2F)n1C [Example I-017],100,100,–,–
CCS(=O)(=O)c1c(-c2nc3cc(C(F)(F)F)ncc3n2C)nc(C#CC2CC2)n1C [Example I-024],90,–,100,100
CCS(=O)(=O)c1c(-c2nc3cc(C(F)(F)F)ncc3n2C)nc(-n2cccn2)n1C [Example I-026],100,90,100,–
CCS(=O)(=O)c1c(-c2nc3cc(C(F)(F)F)ncc3n2C)nc(-n2ccnc2)n1C [Example I-028],100,90,100,–
CCS(=O)(=O)c1c(-c2nc3cc(C(F)(F)F)ncc3n2C)nc(-c2cc(Cl)sc2Cl)n1C [Example I-031],100,–,–,–
CCS(=O)(=O)c1c(-c2nc3cc(C(F)(F)F)ncc3n2C)nc(-c2cccn2C)n1C [Example I-032],100,–,–,–
CCS(=O)(=O)c1c(-c2nc3cc(C(F)(F)F)ncc3n2C)nc(-c2cn[nH]c2)n1C [Example I-034],100,90,–,–
"CCSc1c(-c2nc3cc(C(F)(F)F)ncc3n2C)nc(C(=O)OC)n1C [Example I-035, Methyl 5-(ethylsulfanyl)-1-methyl-4-[3-methyl-6-(trifluoromethyl)-3H-imidazo[4,5-c]pyridin-2-yl]-1H-imidazole-2-carboxylate]",–,–,83,–
"CCS(=O)(=O)c1c(-c2nc3cc(C(F)(F)F)ncc3n2C)nc(C(=O)OC)n1C [Example I-036, Methyl 5-(ethylsulfonyl)-1-methyl-4-[3-methyl-6-(trifluoromethyl)-3H-imidazo[4,5-c]pyridin-2-yl]-1H-imidazole-2-carboxylate]",100,100,100,–
CCS(=O)(=O)c1c(-c2nc3cc(C(F)(F)F)ncc3n2C)nc(C(=O)NCC(F)(F)F)n1C [Example I-037],90,–,–,–
CCS(=O)(=O)c1c(-c2nc3cc(C(F)(F)F)ncc3n2C)nc(-c2cccs2)n1C [Example I-044],100,–,–,–
"CCS(=O)(=O)c1c(-c2nc3cc(C(F)(F)F)ncc3n2C)nc(C#N)n1C [Example I-045, 5-(Ethylsulfonyl)-1-methyl-4-[3-methyl-6-(trifluoromethyl)-3H-imidazo[4,5-c]pyridin-2-yl]-1H-imidazole-2-carbonitrile]",100,–,–,–
CCS(=O)(=O)c1c(-c2nc3cc(C(F)(F)F)ncc3n2C)nc(C(=S)NC)n1C [Example I-047],100,100,–,–
CCS(=O)(=O)c1c(-c2nc3cc(C(F)(F)F)ncc3n2C)nc(C(=S)N(C)C)n1C [Example I-048],100,90,–,–
CCS(=O)(=O)c1c(-c2nc3cc(C(F)(F)F)ncc3n2C)nc(-c2cncs2)n1C [Example I-051],100,90,–,–
CCS(=O)(=O)c1c(-c2nc3cc(C(F)(F)F)ncc3n2C)nc(-c2cncn2C)n1C [Example I-052],100,–,–,–
CCS(=O)(=O)c1c(-c2nc3cc(C(F)(F)F)ncc3n2C)nc(-c2nccn2C)n1C [Example I-053],100,–,–,–
CCS(=O)(=O)c1c(-c2nc3cc(C(F)(F)F)nnc3n2C)nc(Br)n1C [Example I-056],100,–,–,–

SMILES,pest or weed control at 4 ppm (Myzus persicae [1]) [%],pest or weed control at 100 g/ha (Myzus persicae [2]) [%],pest or weed control at 100 g/ha (Phaedon cochleariae) [%],pest or weed control at 100 g/ha (Spodoptera frugiperda) [%]
CCS(=O)(=O)c1c(-c2nc3cc(C(F)(F)F)ncc3n2C)nc(-c2cnc(C)s2)n1C [Example I-058],100,90,–,–
CCS(=O)(=O)c1c(-c2nc3cc(C(F)(F)F)ncc3n2C)nc(-c2cnc(Cl)n2C)n1C [Example I-059],100,100,100,–
CC(C)S(=O)(=O)c1c(-c2nc3cc(C(F)(F)F)ncc3n2C)nc(-c2ccn(C)n2)n1C [Example I-061],100,100,100,–
CCS(=O)(=O)c1c(-c2nc3cc(C(F)(F)F)ncc3n2C)nc(-c2ccnn2C)n1C [Example I-062],100,100,100,–
CCS(=O)(=O)c1c(-c2nc3cc(C(F)(F)F)ncc3n2C)nc(C)n1C [Example I-064],100,100,83,–
CCS(=O)(=O)c1c(-c2nc3cc(C(F)(F)F)ncc3n2C)nc(-c2ccc(CC#N)cc2)n1C [Example I-065],100,100,–,–
CCS(=O)(=O)c1c(-c2nc3cc(C(F)(F)F)ncc3n2C)nc(-c2cnn(CC(F)(F)F)c2)n1C [Example I-067],100,100,100,–
CCS(=O)(=O)c1c(-c2nc3cc(C(F)(F)F)ncc3n2C)nc(-c2cc(C(F)(F)F)nn2C)n1C [Example I-068],100,–,100,–
CCS(=O)(=O)c1c(-c2nc3cc(C(F)(F)F)ncc3n2C)nc(C2=CCCCC2)n1C [Example I-071],–,90,–,–
CCS(=O)(=O)c1c(-c2nc3cc(C(F)(F)F)ncc3n2C)nc(C2=CCC(C(F)(F)F)CC2)n1C (centres unmarked) [Example I-072],100,–,–,–
CCS(=O)(=O)c1c(-c2nc3cc(C(F)(F)F)ncc3n2C)nc(-c2ccc(C(F)(F)F)cc2C)n1C [Example I-078],90,–,100,100
CCS(=O)(=O)c1c(-c2nc3cc(C(F)(F)F)ncc3n2C)nc(-c2ccc(Cl)c(C#N)c2)n1C [Example I-079],100,90,83,–
CCS(=O)(=O)c1c(-c2nc3cc(C(F)(F)F)ncc3n2C)nc(-c2ccc(C#N)c(C(F)(F)F)c2)n1C [Example I-080],100,–,100,–
CCS(=O)(=O)c1c(-c2nc3cc(C(F)(F)F)ncc3n2C)nc(-c2cc(Cl)c(C(F)(F)F)cc2C)n1C [Example I-081],100,–,100,100
CCc1nc(-c2nc3cc(C(F)(F)F)ncc3n2C)c(S(=O)(=O)CC)n1C [Example I-084],100,90,–,–
"CCS(=O)(=O)c1c(-c2nc3cc(C(F)(F)F)ncc3n2C)nc(CCC2CC2)n1C [Example I-085, 2-[2-(2-Cyclopropylethyl)-5-(ethylsulfonyl)-1-methyl-1H-imidazol-4-yl]-3-methyl-6-(trifluoromethyl)-3H-imidazo[4,5-c]pyridine]",100,90,–,–
CCS(=O)(=O)c1c(-n2cc3cnc(C(F)(F)F)cc3n2)nc(-c2ccc(Cl)cc2)n1C [Example I-093],100,–,100,100
CCS(=O)(=O)c1c(-n2cc3ncc(C(F)(F)F)cc3n2)nc(-c2ccc(Cl)cc2)n1C [Example I-094],100,–,83,100
CCS(=O)(=O)c1c(-n2cc3cnc(C(F)(F)F)cc3n2)nc(-c2ccccc2)n1C [Example I-095],100,90,–,100
